Results published in US7803381B2, “Retro-inverso gonadotropin-releasing hormone peptide and vaccine composition” (Shimoda Biotech (Pty) Ltd., priority 2002, dated 2010).
Several values for one entry are separate records, joined by “and”; a condition that tells them apart may be missing. Equal values may be shown once. Entries after “also recorded” stand apart in the source; their conditions may differ. Values belong to the compound of their own block, whether it stands above or below them. Non-standard residues stand in square brackets, D forms with d. Residues, ends and D or L forms follow the SMILES beside them. No end group written: not given here. pGlu = O=C1CC[C@@H](C(=O)O)N1

Experiments:
GnRH [1] = target: T1, GnRH (Homo sapiens, UniProt P01148); assay: Antiserum/antibody inhibition of GnRH stimulated IP accumulation in COS-1 cells transfected with human GnRH receptor; format: cell-based, mammalian
T1 construct: made in house; host or cells: chemical solid-phase synthesis (University of Cape Town); receptor expressed in transfected COS-1 cells
Procedure: (§1) The transfected COS-1 cells (2×10^5 cells/well) were incubated overnight in 0.5 ml Medium 199 (Life Technologies Inc.) with antibiotics and myo-[2-^3H] inositol (1 μCi/well, Amersham Pharmacia Biotech) as previously described. The labelled cells were incubated with various concentrations of GnRH-analogs for one hour at 37° C. in the presence of LiCl as described. Aspirating the medium and addition of 10 mM formic acid (1 ml/well) terminated the incubation. Inositol phosphates separated from the formic acid extract on DOWEX-1 ion exchange columns and eluted into scintillation liquid (Quicksafe, Zinsser Analytical, Frankfurt, Germany) and the radioactivity was counted. […] Serum from the same rabbits before immunisation was also tested. […] After one hour the incubation was terminated with formic acid and inositol phosphates were separated and counted as described. […] The mixture was added to labelled cells, and the inhibition of IP production was calculated. […] Purified anti-RI-GnRH antibodies were tested for their ability to discriminate among GnRH, [[…]]GnRH, and GnRH II. […] Stimulating with these concentrations [half-maximal effective concentrations (EC50)] in the absence of antibody produced similar levels of IP counts. […] The mixture was added to labelled cells and the inhibition of IP production calculated as described. IP assays were performed in duplicate and four-parameter nonlinear curve fitting (PRISM, GraphPad Software, In., San Diego, Calif.) was used to estimate the peptide concentrations required to stimulate half-maximal IP production (EC50). […] All kinetic analysis was performed with BiaEvaluation 3 (BIACORE) software, using the standard χ^2 statistic test. […] All statistical analyses were performed with StatView, using a standard correlation program.

RI-GnRH peptide = assay: ELISA binding of purified anti-RI-GnRH antibody fractions to RI-GnRH; details: ELISA titre
Procedure: (§2) Microtitre plates were coated with RI-GnRH peptide (5 μg/ml) in 100 mM Na2CO3 (pH=9.6) and incubated for one hour at 37° C. After several washes with PBS (pH=7.4) plates were saturated for one hour with 1% BSA in PBS supplemented with Tween 20 (0.1% wt/volume) at 37° C. Sera from immunised rabbits and mice at different dilutions (1:500 to 1:3200) were added to the plates and incubated for one hour at 37° C. […] Washed plates were reacted with 3,3′,5,5′-tetramethyl benzidine (TMB) and […] as substrate.

human GnRH receptor = target: T2, human GnRH receptor (Homo sapiens, UniProt P30968); assay: GnRH analog-stimulated inositol phosphate (IP) accumulation in COS-1 cells transiently transfected with human GnRH receptor; format: cell-based
T2 construct: expressed in transfected cells; host or cells: COS-1 cells, transient transfection (DEAE-Dextran), vector pcDNA I/AMP
T2 sequence (P30968 1-328): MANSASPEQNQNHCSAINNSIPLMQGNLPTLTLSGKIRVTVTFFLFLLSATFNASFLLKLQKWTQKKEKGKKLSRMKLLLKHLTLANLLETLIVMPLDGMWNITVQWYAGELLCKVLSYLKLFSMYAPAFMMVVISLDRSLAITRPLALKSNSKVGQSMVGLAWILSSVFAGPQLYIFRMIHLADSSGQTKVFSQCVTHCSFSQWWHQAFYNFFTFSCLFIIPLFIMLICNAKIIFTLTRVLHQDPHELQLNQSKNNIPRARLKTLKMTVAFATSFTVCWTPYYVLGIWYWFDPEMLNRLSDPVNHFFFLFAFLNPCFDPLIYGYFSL
Procedure: COS-1 cells were cultured in Dulbecco's modified Eagle's medium/DMEM (Life Technologies, Inc., Paisley, Scotland), supplemented with 10% foetal calf serum (FCS, Delta bioproducts, Kempton Park, South Africa) in a 10% CO2 incubator at 37° C. Cells were harvested with 0.05% trypsin. For all transient transfections 2×10^5 cells/well were seeded into 12-well plates and cultured overnight in DMEM containing 10% FCS and antibiotics (2 mg/ml streptomycin sulphate, 4000 U/ml sodium benzyl penicillin). COS-1 cells were transiently transfected using the DEAE-Dextran method, as previously described.
The transfected COS-1 cells (2×10^5 cells/well) were incubated overnight in 0.5 ml Medium 199 (Life Technologies Inc.) with antibiotics and myo-[2-^3H] inositol (1 μCi/well, Amersham Pharmacia Biotech) as previously described. […] Aspirating the medium and addition of 10 mM formic acid (1 ml/well) terminated the incubation. Inositol phosphates separated from the formic acid extract on DOWEX-1 ion exchange columns and eluted into scintillation liquid (Quicksafe, Zinsser Analytical, Frankfurt, Germany) and the radioactivity was counted.
IP assays were performed in duplicate and four-parameter nonlinear curve fitting (PRISM, GraphPad Software, In., San Diego, Calif.) was used to estimate the peptide concentrations required to stimulate half-maximal IP production (EC50). […]

[2] = tested on: purified rabbit anti-RI-GnRH antibodies; assay: Inhibition immunoassay (ELISA): peptide displacement of anti-RI-GnRH antibodies from fixed RI-GnRH; format: binding; details: for inhibition by free peptide of anti-RI-GnRH antibody binding to fixed RI-GnRH: ELISA, increasing peptide concentrations
Procedure: as §2
(§3) Nonspecific inhibition was determined with an unrelated L peptide, […](V9C), and an unrelated RI peptide ([…]. Various dilutions of anti-RI-GnRH antibodies were preincubated with increasing concentrations of peptide (3.9-1000 nM) for 1 h at 37° C. The percent inhibition of signal was calculated from the amount of anti-RI-GnRH antibodies that bound RI-GnRH in the presence of increasing peptide concentrations against the amount of anti-RI-GnRH antibodies that bound RI-GnRH in the absence of competing peptide.

GnRH [3] = assay: Antiserum/antibody inhibition of GnRH stimulated IP accumulation in COS-1 cells transfected with human GnRH receptor; format: cell-based, mammalian; details: 5 nM antibody fraction; 0.3 nM GnRH, 1 nM [Gln^8]GnRH, 1 nM GnRH II
Procedure: as §1

rabbits = assay: Rabbit immunisation with RI-GnRH conjugated with MAO; format: in vivo; details: 100 μg/rabbit conjugated with MAO, CFA then IFA boosters
Procedure: Two adult female rabbits (Harlan, Leicestershire, UK) were immunised with RI-GnRH (100 μg/rabbit) conjugated with MAO. The primary injections were given subcutaneously in complete Freund's adjuvant (CFA). These were followed by three booster injections (1 ml/rabbit) in incomplete Freund's adjuvant (IFA) at two week intervals. The last booster injection was given four weeks later using 200 μg free peptide together with 1 mg methylated-BSA (m-BSA). The rabbits were bled one week after each injection. Two experiments were performed with mice to test whether immunization with RI-GnRH would generate GnRH antibodies, and different methods of immunization with RI-GnRH were tested.
as §2

male BALB/c mice = format: in vivo, mouse
Procedure: Nine male BALB/c mice (Janvier, France), nine weeks of age, were immunised intraperitoneally (i.p.) with either 25 μg/mouse RI-GnRH conjugated with MAO (n=5) or saline buffer (n=4). The primary injections were given in CFA supplemented with 200 μg m-BSA. These were followed by two-booster injections in IFA and m-BSA at day 15 and 45 after primary injection. The mice were weighed and bled one week after each immunisation. On day 45, males injected with RI-GnRH conjugate or saline were placed with females of proven fertility and litters observed. The males were sacrificed 75 days after primary injection for histological examination.
as §2, §3
Male mice were sacrificed and the testes dissected. Testes were weighed and fixed in formalin/saline solution (12%) for routine histology. The fixed testes were dehydrated, sectioned (5 μm thick) and stained with haematoxylin and eosin.

BALB/c mice = assay: Second mice example: immunisation of BALB/c mice with unconjugated RI-GnRH coinjected with CpG, titre and fertility; format: in vivo, mouse; details: for Titre 1 (d 37): individual mice 1-6, without complete Freund's adjuvant
Procedure: In the second experiment, four week old BALB/c mice (3 of each sex) were immunised with 25 μg/mouse unconjugated RI-GnRH coinjected with CpG (50 μg/mouse) oligonucleotide and m-BSA. A control group (2 of each sex) received saline buffer together with 50 μg/mouse CpG oligonucleotide as adjuvant (Klinman, et al., 1999) supplemented with 200 μg m-BSA. All injections were given in 10% v/v IFA. Mice were immunised at days 1, 15 and 30. They were bled and mated with partners of proven fertility at day 37 after the initial immunisation.
as §2

fold suppression of EC50 of GnRH-stimulated IP accumulation (GnRH [1]; 5 nM antibody fraction): 4.4 fold
Compound: glycine
affinity of antibody populations for RI-GnRH peptide (RI-GnRH peptide): higher affinity than those eluted with KSCN

EC50 (human GnRH receptor; absence of antibody, read-out: EC50 of ligand-stimulated IP accumulation): 1 nM
inhibition by free peptide of anti-RI-GnRH antibody binding to fixed RI-GnRH [2]: cross-react less
Compound: NC(=O)CNC(=O)[C@@H]1CCCN1C(=O)[C@H](Cc1ccc(O)cc1)NC(=O)[C@H](Cc1c[nH]c2ccccc12)NC(=O)CNC(=O)[C@H](Cc1c[nH]cn1)NC(=O)[C@H](CO)NC(=O)[C@H](Cc1c[nH]c2ccccc12)NC(=O)[C@H](Cc1c[nH]cn1)NC(=O)[C@@H]1CCC(=O)N1 [GnRH II, [His^5, Trp^7, Tyr^8]GnRH, reference compound] ([pGlu]HWSHGWYPG-NH2)

Compound: VRTVEDGEC [V9C, unrelated L peptide]
inhibition by free peptide of anti-RI-GnRH antibody binding to fixed RI-GnRH [2]: not significantly inhibited; also recorded: low inhibition

IC50 (GnRH [1]; 0.3 nM GnRH, read-out: antibody concentration inhibiting 50% of GnRH-stimulated IP accumulation): 1.7 nM
cross-reaction of eluted antibody fractions with GnRH ([2]; inhibition ELISA): cross-reacted most efficiently
Compound: KSCN
inhibition of GnRH (analog) stimulated IP production by eluted antibody fractions (GnRH [3]): most effective

inhibition by free peptide of anti-RI-GnRH antibody binding to fixed RI-GnRH [2]: could also inhibit
Compound: CC(C)C[C@H](NC(=O)CNC(=O)[C@H](Cc1ccc(O)cc1)NC(=O)[C@H](CO)NC(=O)[C@H](Cc1c[nH]c2ccccc12)NC(=O)[C@H](Cc1c[nH]cn1)NC(=O)[C@@H]1CCC(=O)N1)C(=O)N[C@@H](CCCNC(=N)N)C(=O)N1CCC[C@H]1C(=O)NCC(N)=O [GnRH]

inhibition by free peptide of anti-RI-GnRH antibody binding to fixed RI-GnRH [2]: incrementally decreased
Compound: GPRLGYSWHEC (G[dP][dR][dL]G[dY][dS][dW][dH][dE][dC]; not fully specified) [RI-GnRH, retro-inverso GnRH peptide with additional C-terminal cysteine for conjugation]
effect of RI-GnRH peptide alone on IP accumulation / GnRH stimulated IP accumulation (human GnRH receptor; data not shown, listed as RI-GnRH peptide): could not stimulate or inhibit; also recorded: did not stimulate or inhibit
anti-RI-GnRH antibody response (rabbits): high titre
development of anti-RI-GnRH antibodies (male BALB/c mice; 25 μg/mouse conjugated with MAO, i.p., CFA + m-BSA): All five immunised male mice developed anti-RI-GnRH antibodies
testis histology (male BALB/c mice; males sacrificed 75 days after primary injection): atrophied Leydig and Sertoli cells, less spermatogonia and primary spermatocytes, presence of very few spermatids and reduced diameters of the seminiferous tubules
infertile immunised male mice (male BALB/c mice; mated with normal females from day 45): Two of the group of five
adverse side effects or changes in body weight (male BALB/c mice; mouse, in vivo): no indication of adverse side effects or changes in body weight
testis weight (male BALB/c mice; mouse, in vivo): reduced testis weight
production of anti-RI-GnRH antibodies (BALB/c mice; 25 μg/mouse unconjugated RI-GnRH with CpG 50 μg/mouse, m-BSA, 10% IFA): produced anti-RI-GnRH antibodies, which cross-reacted with the native hormone
mice infertile until day 220 (BALB/c mice; boosted at day 97): four mice stayed infertile
infertile mice on day 120 (BALB/c mice; boosted at day 97, mated one week thereafter): Two mice were infertile
Titre 1 (d 37) (BALB/c mice; female mice): 3.00E−05 and 1.30E−04 and 1.00E−02
Titre 1 (d 37) (BALB/c mice; male mice): 3.00E−05 and 1.00E−03 and 5.00E−04
fertility after pairing at day 37 (BALB/c mice; male and female mice paired with normal partners): All mice were infertile after pairing at day 37, except for one
adverse side effects or changes in body weight (BALB/c mice; mouse, in vivo): no indication of adverse side effects or changes in body weight
litters from further matings up to day 90 (BALB/c mice; mouse, in vivo): no litters
